{"source": "patent US20260373042A1", "about": "“PEPTIDE HAVING ACTIVITY OF IMPROVING STATE OF SKIN, AND USE THEREOF” (CAREGEN CO., LTD., priority 2022, published 2026)", "key": {"NIH3T3 cells [1]": {"test_system": "NIH3T3 cells", "test": "Reactive oxygen species increased by ultraviolet rays in NIH3T3 cells (DCFH-DA, flow cytometry)", "type": "cell-based, mouse", "conditions": "50 μM or 1000 μM, UV 8 J/cm^2, 24 hours after UV, FIG. 6", "description": "(§1) In this example, the aim was to confirm the effect of the peptide according to an embodiment on the antioxidant effect in damaged skin, by evaluating the change in the level of reactive oxygen species in skin cells increased by ultraviolet irradiation.\n(§2) Specifically, NIH3T3 cells or HaCaT cells were seeded in a 6-well plate at a density of 5×10^5 cells/well and cultured for 24 hours. Next, the cells were washed once with serum-free DMEM media, and 50 μM or 1000 μM of a peptide consisting of an amino acid sequence of SEQ ID NO: 1 was dispensed into 1 mL of the serum-free media, and cultured in a CO2 incubator at 37 °C for […]. Next, the above culture was transferred to an e-tube, mixed with 1 ml of PBS, and dispensed into a well plate. Next, using a UV irradiator (VILBER LOURMAT, Cat No.: 3102-BSU, France), 8 J/cm^2 ultraviolet rays were irradiated to NIH3T3 cells, and 15 mJ/cm^2 ultraviolet rays were irradiated to HaCaT cells. Next, the PBS in the well plate was removed, 900 μL of the culture medium in which the peptides were dispensed was added, and the plate was cultured in a CO2 incubator at 37 °C for 24 hours. Next, the culture was treated with DCFH-DA (2′,7′-dichlorofluorescin diacetate), wrapped in foil, and cultured in a CO2 incubator at 37 °C for 30 minutes. […] After washing the centrifuged cells with PBS, fluorescence values were measured through flow cytometry (FACS, BD, USA). […]"}, "HaCaT cells [2]": {"test_system": "HaCaT cells", "test": "Proliferation (MTT survival rate) of HaCaT human keratinocytes", "type": "cell-based", "conditions": "50 μM or 100 μM, serum-free DMEM, 72 hours, MTT 540 nm, vs untreated control, FIG. 1B", "description": "(§3) In this example, the aim was to confirm the effect of a peptide according to an example on proliferation of skin cells, by evaluating changes in survival rate of NIH3T3 cells, which are mouse fibroblasts, or HaCaT cells, which are human keratinocytes.\n(§4) Specifically, NIH3T3 cells or HaCaT cells were seeded in a 96-well plate at a density of 5×10^3 cells/well and cultured for 24 hours. Next, the cells were washed once with serum-free DMEM media, and 50 μM or 100 μM of a peptide consisting of an amino acid sequence of SEQ ID NO: 1 was dispensed into 200 μL of the serum-free media, and cultured in a CO2 incubator at 37 °C for 72 hours. Next, the culture was washed twice with PBS, and 0.5 mg/ml of MTT (Sigma, Cat. No.: M2003, USA) solution was dispensed into each well. Next, after being shaded from light, it was cultured in a CO2 incubator at 37 °C for 4 hours. Next, the absorbance at 540 nm was measured. In this example, an untreated group was used as the control group, and a group to which insulin-like growth factor was added (IGF) was used as the positive control group."}, "Col1a1": {"test_system": "Col1a1", "test": "Expression of collagen type 1 (Col1a1) in NIH3T3 cells, RT-PCR", "type": "cell-based, mouse", "conditions": "50 μM or 1000 μM, 24 hours, vs untreated control, FIG. 2, 3A", "description": "(§5) In this example, the aim was to confirm the effect of the peptide according to an example on improving endogenous skin aging, including improvement of wrinkles and enhancement of elasticity, etc., by evaluating the expression levels of collagen type 1 (Col1a1), fibronectin, or elastin, which are known components of the dermis.\n(§6) Specifically, NIH3T3 cells were seeded in a 6-well plate at a density of 3×10^5 cells/well and cultured for 24 hours. Next, the cells were washed once with serum-free DMEM media, and 50 μM or 1000 μM of a peptide consisting of an amino acid sequence of SEQ ID NO: 1 was dispensed into 1 mL of the serum-free media, and cultured in a CO2 incubator at 37 °C for 24 hours. Next, the culture was washed twice with PBS, and RNA was isolated from the culture using easy blue (iNtRON, Korea). Using an RT kit (Enzynomics, Korea), 1 μg of the isolated RNA was reverse transcribed to synthesize the respective cDNA. Next, polymerase chain reaction (PCR) was performed using the cDNAs and primers Col1a1, fibronectin, and elastin. Meanwhile, an untreated group was used as a control group, and a group to which TGF-β1 was added (TGF-β1) was used as a positive control group, the nucleotide sequences of the primers used in this example are shown in Table 2 below."}, "SIRT-1": {"test_system": "SIRT-1", "test": "Expression of sirtuin-1 (SIRT-1) in HaCaT cells, RT-PCR", "type": "cell-based, human", "conditions": "50 μM or 1000 μM, 24 hours, vs untreated control, FIG. 4, 5A", "description": "(§7) In this example, the aim was to confirm the effect of the peptides according to an example on strengthening the skin barrier, by evaluating the expression levels of sirtuin-1 (SIRT-1) or aquaporin-3 (AQP3).\n(§8) Specifically, HaCaT cells were seeded in a 6-well plate at a density of 3×10^5 cells/well and cultured for 24 hours. Next, the cells were washed once with serum-free DMEM media, and 50 μM or 1000 μM of a peptide consisting of an amino acid sequence of SEQ ID NO: 1 was dispensed into 1 mL of the serum-free media, and cultured in a CO2 incubator at 37 °C for 24 hours. Next, the culture was washed twice with PBS, and RNA was isolated from the culture using easy blue (iNtRON, Korea). Using an RT kit (Enzynomics, Korea), 1 μg of the isolated RNA was reverse transcribed to synthesize the respective cDNA. Next, polymerase chain reaction was performed using the cDNAs and primers sirtuin-1 and aquaporin-3. Meanwhile, an untreated group was used as a control group, and a group to which EGF was added (EGF) was used as a positive control group, the nucleotide sequences of the primers used in this example are shown in Table 3 below."}, "elastin": {"test_system": "elastin", "test": "Expression of elastin in NIH3T3 cells, RT-PCR", "type": "cell-based, mouse", "conditions": "50 μM or 1000 μM, 24 hours, vs untreated control, FIG. 2, 3C", "description": "as §5, §6"}, "fibronectin": {"test_system": "fibronectin", "test": "Expression of fibronectin in NIH3T3 cells, RT-PCR", "type": "cell-based, mouse", "conditions": "50 μM or 1000 μM, 24 hours, vs untreated control, FIG. 2, 3B", "description": "as §5, §6"}, "HaCaT cells [3]": {"test_system": "HaCaT cells", "test": "Reactive oxygen species increased by ultraviolet rays in HaCaT cells (DCFH-DA, flow cytometry)", "type": "cell-based, human", "conditions": "50 μM or 1000 μM, UV 15 mJ/cm^2, 24 hours after UV, FIG. 7", "description": "as §1, §2"}, "AQP3": {"test_system": "AQP3", "test": "Expression of aquaporin-3 (AQP3) in HaCaT cells, RT-PCR", "type": "cell-based, human", "conditions": "50 μM or 1000 μM, 24 hours, vs untreated control, FIG. 4, 5B", "description": "as §7, §8"}, "NIH3T3 cells [4]": {"test_system": "NIH3T3 cells", "test": "Proliferation (MTT survival rate) of NIH3T3 mouse fibroblasts", "type": "cell-based", "conditions": "50 μM or 100 μM, serum-free DMEM, 72 hours, MTT 540 nm, vs untreated control, FIG. 1A", "description": "as §3, §4"}}}
{"substance": "DGWNY [SEQ ID NO: 1]", "values": [{"measurement": "level of reactive oxygen species in fibroblasts increased by ultraviolet irradiation", "setting": "NIH3T3 cells [1]", "value": "reduced"}, {"measurement": "proliferation of keratinocytes", "setting": "HaCaT cells [2]", "value": "promoted"}, {"measurement": "expression of Col1a1", "setting": "Col1a1", "value": "increased"}, {"measurement": "expression of SIRT-1", "setting": "SIRT-1", "value": "increased"}, {"measurement": "expression of elastin", "setting": "elastin", "value": "increased"}, {"measurement": "expression of fibronectin", "setting": "fibronectin", "value": "increased"}, {"measurement": "level of reactive oxygen species in keratinocytes increased by ultraviolet irradiation", "setting": "HaCaT cells [3]", "value": "reduced"}, {"measurement": "expression of AQP3", "setting": "AQP3", "value": "increased"}, {"measurement": "proliferation of fibroblasts", "setting": "NIH3T3 cells [4]", "value": "promoted"}]}
